The numbers were not newly measured in patent US7238683B2, “Fused phenylalanine derivatives as dipeptidyl peptidase-iv inhibitors for the treatment or prevention of diabetes” (Merck & Co., Inc., priority 2003, dated 2007), which cites them from elsewhere.

Data set [1] concerns hematopoiesis. The following applies: mouse, cyclophosphamide-induced neutropenia.
The target of data set [2] is T1, DP-IV (Homo sapiens, UniProt P27487).
T1 construct: GRP is rapidly degraded in plasma to GRF[3-44]; from tissue

Each structure is given as a SMILES string.

T1 sequence (P27487 whole entry): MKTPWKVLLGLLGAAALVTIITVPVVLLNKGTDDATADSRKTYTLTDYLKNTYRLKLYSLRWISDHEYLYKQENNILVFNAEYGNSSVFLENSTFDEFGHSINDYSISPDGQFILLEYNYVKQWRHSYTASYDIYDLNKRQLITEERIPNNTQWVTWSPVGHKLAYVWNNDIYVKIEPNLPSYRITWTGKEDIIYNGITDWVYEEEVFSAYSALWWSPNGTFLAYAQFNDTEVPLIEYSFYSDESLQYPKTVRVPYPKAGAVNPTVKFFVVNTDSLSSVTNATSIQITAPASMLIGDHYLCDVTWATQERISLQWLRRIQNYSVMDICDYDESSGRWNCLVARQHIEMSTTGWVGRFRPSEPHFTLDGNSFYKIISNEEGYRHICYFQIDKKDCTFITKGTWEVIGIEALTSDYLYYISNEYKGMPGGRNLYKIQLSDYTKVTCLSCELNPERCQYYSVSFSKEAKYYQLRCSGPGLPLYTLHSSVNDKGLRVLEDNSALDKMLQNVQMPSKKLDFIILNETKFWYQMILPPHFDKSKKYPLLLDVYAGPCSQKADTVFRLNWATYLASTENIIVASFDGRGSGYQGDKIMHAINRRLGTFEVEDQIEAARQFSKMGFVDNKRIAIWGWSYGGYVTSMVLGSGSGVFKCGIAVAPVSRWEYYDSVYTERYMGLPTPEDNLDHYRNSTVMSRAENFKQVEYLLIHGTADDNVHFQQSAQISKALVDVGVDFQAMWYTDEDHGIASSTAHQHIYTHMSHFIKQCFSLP

Turning to `CC(C)[C@H](N)C(=O)N1CCC[C@H]1B(O)O` [Val-Boro-Pro], the effect on hematopoiesis entry in data set [1] is recorded as “stimulated hematopoiesis”.

For `CC[C@H](C)[C@H](N)C(=O)N1CCC[C@H]1C(=O)N[C@H](C(=O)O)[C@@H](C)CC` [diprotin A], the “degradation of GRF in plasma to GRF[3-44]” value in data set [2] was “prevented”.
